Assay results published in patent US20230045421A1 (priority 2018, published 2023).
Where two headings read alike, the source gives them in different places.

System: HBV rcDNA
Assay: HepDE19 assay with bDNA quantitation of HBV rcDNA
Format: cell-based, hepatitis B virus
Summary of the method: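 Compounds, top concentration 25 μM in 8-point duplicate series, were applied to Tet-free HepDE19 cultures for 7 days. Branched-DNA quantitation of HBV rcDNA against untreated wells gave EC50 and EC90 by 4-parameter fit. Viability (CC50) came from ATP luminescence on parallel plates incubated 4 days.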

[1] = Hepatitis B virus, HepDE19, HepDE19 assay, inhibition of formation of rcDNA, read-out: DE-19bDNA EC50
[2] = Hepatitis B virus, HepDE19, read-out: DE-19bDNA EC50 (μM), HepDE19 assay, inhibition of formation of rcDNA
[3] = HepDE19 assay, inhibition of formation of rcDNA, read-out: DE-19bDNA EC50

Row | Compound | EC50 [1] | further results
1 | COc1ncc(CN(CC2CC2)C(=O)Nc2ccc(F)c(Cl)c2)c2ccccc12 [Compound 31, 3-(3-Chloro-4-fluorophenyl)-1-(cyclopropylmethyl)-1-((1-methoxyisoquinolin-4-yl)methyl)urea] | 0.87 µM | 
2 | Cc1cc(NC(=O)N(C)[C@H](C)c2c[nH]c(=O)c3ccccc23)ccc1F [Compound 32, (R)-3-(4-Fluoro-3-methylphenyl)-1-methyl-1-(1-(1-oxo-1,2-dihydroisoquinolin-4-yl)ethyl)urea] | 0.03 µM | 
3 | CCCCN(Cc1cnc(OC)c2ccccc12)C(=O)Nc1ccc(F)c(Cl)c1 [Compound 33, 1-Butyl-3-(3-chloro-4-fluorophenyl)-1-((1-methoxyisoquinolin-4-yl)methyl)urea] | 0.62 µM | 
4 | COc1ncc(CN(C(=O)Nc2ccc(F)c(Cl)c2)C2CC2)c2ccccc12 [Compound 34, 3-(3-Chloro-4-fluorophenyl)-1-cyclopropyl-1-((1-methoxyisoquinolin-4-yl)methyl)urea] | 3.7 µM | 
5 | CCCN(C(=O)Nc1ccc(F)c(Cl)c1)[C@H](C)c1c[nH]c(=O)c2ccccc12 [Compound 35, (R)-3-(3-Chloro-4-fluorophenyl)-1-(1-(1-oxo-1,2-dihydroisoquinolin-4-yl)ethyl)-1-propylurea] | 0.01 µM | 
6 | COCCN(Cc1cnc(OC)c2ccccc12)C(=O)Nc1ccc(F)c(Cl)c1 [Compound 41, 3-(3-Chloro-4-fluorophenyl)-1-(2-methoxyethyl)-1-((1-methoxyisoquinolin-4-yl)methyl)urea] | 3.8 µM | 
7 | O=C(Nc1ccc(F)c(Cl)c1)N(Cc1c[nH]c(=O)c2ccccc12)C1CC1 [Compound 42, 3-(3-Chloro-4-fluorophenyl)-1-cyclopropyl-1-((1-oxo-1,2-dihydroisoquinolin-4-yl)methyl)urea] | 0.81 µM | 
8 | CCCN(C(=O)Nc1ccc(F)c(C)c1)[C@H](C)c1c[nH]c(=O)c2ccccc12 [Compound 43, (R)-3-(4-Fluoro-3-methylphenyl)-1-(1-(1-oxo-1,2-dihydroisoquinolin-4-yl)ethyl)-1-propylurea] | 0.01 µM | 
9 | COCCCN(Cc1cnc(OC)c2ccccc12)C(=O)Nc1ccc(F)c(Cl)c1 [Compound 47, 3-(3-Chloro-4-fluorophenyl)-1-((1-methoxyisoquinolin-4-yl)methyl)-1-(3-methoxypropyl)urea] | 2 µM | 
10 | COc1ncc(CN(Cc2ccccc2)C(=O)Nc2ccc(F)c(Cl)c2)c2ccccc12 [Compound 48, 1-Benzyl-3-(3-chloro-4-fluorophenyl)-1-((1-methoxyisoquinolin-4-yl)methyl)urea] | 2.1 µM | 
11 | COCCN(Cc1c[nH]c(=O)c2ccccc12)C(=O)Nc1ccc(F)c(Cl)c1 [Compound 50, 3-(3-Chloro-4-fluorophenyl)-1-(2-methoxyethyl)-1-((1-oxo-1,2-dihydroisoquinolin-4-yl)methyl)urea] |  | EC50 [2]: 0.47 µM
12 | CCCCN(Cc1c[nH]c(=O)c2ccccc12)C(=O)Nc1ccc(F)c(Cl)c1 [Compound 52, 1-Butyl-3-(3-chloro-4-fluorophenyl)-1-((1-oxo-1,2-dihydroisoquinolin-4-yl)methyl)urea] | 0.08 µM | 
13 | O=C(Nc1ccc(F)c(Cl)c1)N(Cc1c[nH]c(=O)c2ccccc12)CC1CC1 [Compound 53, 3-(3-Chloro-4-fluorophenyl)-1-(cyclopropylmethyl)-1-((1-oxo-1,2-dihydroisoquinolin-4-yl)methyl)urea] |  | EC50 [2]: 0.16 µM
14 | COCCCN(C(=O)Nc1ccc(F)c(Cl)c1)C(C)c1c[nH]c(=O)c2ccccc12 (stereo not shown) [Compound 79] |  | EC50 [3]: 2.1 µM
15 | COCCCN(C(=O)Nc1ccc(F)c(Cl)c1)C(C)c1c[nH]c(=O)c2ccccc12 (stereo not shown) [Compound 80] |  | EC50 [3]: 0.03 µM
16 | CN(Cc1cnc(OCc2ncn(C)n2)c2ccccc12)C(=O)Nc1ccc(F)c(Cl)c1 [Compound 87, 3-(3-Chloro-4-fluorophenyl)-1-methyl-1-((1-((1-methyl-1H-1,2,4-triazol-3-yl)methoxy)isoquinolin-4-yl)methyl)urea] | 0.47 µM | 
17 | CN(Cc1cnc(OCc2ccccn2)c2ccccc12)C(=O)Nc1ccc(F)c(Cl)c1 [Compound 88, 3-(3-Chloro-4-fluorophenyl)-1-methyl-1-((1-(pyridin-2-ylmethoxy)isoquinolin-4-yl)methyl)urea] | 1.1 µM | 
18 | C[C@H](c1c[nH]c(=O)c2ccccc12)N(C)C(=O)Nc1ccc(F)c(C(F)(F)F)c1 [Compound 89, (R)-3-(4-Fluoro-3-(trifluoromethyl)phenyl)-1-methyl-1-(1-(1-oxo-1,2-dihydroisoquinolin-4-yl)ethyl)urea] | 0.32 µM | 
19 | C[C@H](c1c[nH]c(=O)c2ccccc12)N(C)C(=O)Nc1ccc(F)cc1 [Compound 90, (R)-3-(4-Fluorophenyl)-1-methyl-1-(1-(1-oxo-1,2-dihydroisoquinolin-4-yl)ethyl)urea] | 0.46 µM | 
20 | C[C@H](c1c[nH]c(=O)c2ccccc12)N(C)C(=O)Nc1cc(F)c(F)c(F)c1 [Compound 91, (R)-1-Methyl-1-(1-(1-oxo-1,2-dihydroisoquinolin-4-yl)ethyl)-3-(3,4,5-trifluorophenyl)urea] | 0.16 µM | 
21 | C[C@H](c1c[nH]c(=O)c2ccccc12)N(C)C(=O)Nc1ccc(F)c(F)c1 [Compound 92, (R)-3-(3,4-Difluorophenyl)-1-methyl-1-(1-(1-oxo-1,2-dihydroisoquinolin-4-yl)ethyl)urea] | 0.23 µM | 
22 | C[C@H](c1c[nH]c(=O)c2ccccc12)N(C)C(=O)Nc1cccc(F)c1 [Compound 93, (R)-3-(3-Fluorophenyl)-1-methyl-1-(1-(1-oxo-1,2-dihydroisoquinolin-4-yl)ethyl)urea] |  | EC50 [2]: 0.52 µM
23 | C[C@H](c1c[nH]c(=O)c2ccccc12)N(C)C(=O)Nc1ccnc(Cl)c1 [Compound 94, (R)-3-(2-Chloropyridin-4-yl)-1-methyl-1-(1-(1-oxo-1,2-dihydroisoquinolin-4-yl)ethyl)urea] |  | EC50 [2]: 1 µM
24 | C[C@H](c1c[nH]c(=O)c2ccccc12)N(CC(F)F)C(=O)Nc1ccc(F)c(Cl)c1 [Compound 96, (R)-3-(3-Chloro-4-fluorophenyl)-1-(2,2-difluoroethyl)-1-(1-(1-oxo-1,2-dihydroisoquinolin-4-yl)ethyl)urea] | 0.22 µM | 
25 | Cc1cc(NC(=O)N(CC(F)F)[C@H](C)c2c[nH]c(=O)c3ccccc23)ccc1F [Compound 97, (R)-3-(3-Methyl-4-fluorophenyl)-1-(2,2-difluoroethyl)-1-(1-(1-oxo-1,2-dihydroisoquinolin-4-yl)ethyl)urea] | 0.11 µM | 
26 | C[C@H](c1c[nH]c(=O)c2ccccc12)N(C)C(=O)Nc1ccc(F)c(C#N)c1 [Compound 98, (R)-3-(3-Cyano-4-fluorophenyl)-1-methyl-1-(1-(1-oxo-1,2-dihydroisoquinolin-4-yl)ethyl)urea] |  | EC50 [2]: 0.16 µM
27 | [2H]C([2H])([2H])C([2H])([2H])N(C(=O)Nc1ccc(F)c(Cl)c1)[C@H](C)c1c[nH]c(=O)c2ccccc12 [Compound 99, (R)-3-(3-Chloro-4-fluorophenyl)-1-(ethyl-d5)-1-(1-(1-oxo-1,2-dihydroisoquinolin-4-yl)ethyl)urea] | 0.03 µM | 
28 | COc1ncc([C@@H](C)N(CC(F)(F)F)C(=O)Nc2ccc(F)c(Cl)c2)c2ccccc12 [Compound 101, (R)-3-(3-Chloro-4-fluorophenyl)-1-(1-(1-methoxyisoquinolin-4-yl)ethyl)-1-(2,2,2-trifluoroethyl)urea] | 0.42 µM | 
